Data from patent US20240132431A1, “METHOD FOR ALKYLATING ACIDIC FUNCTIONAL GROUP” (Chugai Seiyaku Kabushiki Kaisha, priority 2021, published 2024).

Target: T1, Bcl-2 protein (Recombinant Human Bcl-2 Protein) (Homo sapiens, UniProt P10415)
T1 construct: purchased Novus NBP2-34889
Assay: Binding evaluation of mixture library compounds to Bcl-2 using AS-MS (affinity selection mass spectrometry)
Details: ASMS Ratio(%)=(A−C)/B×100; for ASMS ratio (%) n = 2: replicate n = 2; for ASMS ratio (%) n = 1: replicate n = 1
Protocol: For one well of MICROPLATE, 96-well, PP, V-BOTTOM (Greiner bio-one, 651201), DMSO solutions of 12 mixtures (prepared to approximately 0.58 mM based on calculations from the average molecular weight of each mixture), in each of which 100 compounds are mixed, were each dispensed, and dispensed into a total of 12 wells, where the 12 mixtures are mixAI-B4J-01, mixAI-B1M-01, mixAI-B1K-01, mixAI-B10-01, mixAI-B1A-01, mixAI-B3A-01, mixAI-B21-01, mixAI-B2L-01, mixAI-B2N-01, mixAI-B2A-01, mixAI-B2Q-01, and mixAI-B2R-01 listed in [Table AI-03-B4J-01], [Table AI-03-B1M-01], [Table AI-03-B1K-01], [Table AI-03-B10-01], [Table AI-03-B1A-01], [Table AI-03-B3A-01], [Table AI-03-B2I-01], [Table AI-03-B2L-01], [Table AI-03-B2N-01], [Table AI-03-B2A-01], [Table AI-03-B2Q-01], and [AI-03-B2R-01] shown in Example 6. Using the LABCYTE ECHO® 555 Acoustic Dispensing System (BECKMAN COULTER), 70 nL was collected from each of the 12 wells into one arbitrary well to prepare a sample solution with 1200 compounds in the mixed state (the presence of 1152 compounds had already been identified when prepared in Example 6-5-3). (In the present specification, the mixture collected in this one well is referred to as one library.) Furthermore, a Bcl-2 protein (Novus, NBP2-34889, Recombinant Human Bcl-2 Protein, Lot E60145051) (19.2 μL) that had been prepared in advance to be 20.9 μM using a Tris-HCl buffer (25 mM Tris-HCl pH 7.4, 150 mM NaCl, 0.025% Tween-20, 1 mM DTT) was added to the well in which 1200 compounds (the presence of 1152 compounds had already been identified when prepared in Example 6-5-3) were dispensed (final compound concentration […], final Bcl-2 concentration 20 μM), and the mixture was incubated in the dark at 23° C. for 1 hour. Next, using the 96-well MacroSpin column, P-2 Material (Harvard, 74-5655) that had been swollen, conditioning of the 96-well MacroSpin column was performed three times by centrifugation with 200 μL of an assay buffer (25 mM Tris-HCl pH 7.4, 150 mM NaCl, 0.025% Tween-20, 1 mM DTT), 2000 XG, 4° C., 2 min. Subsequently, 20 μL of the sample after incubation was added to the 96-well MacroSpin column, P-2 Material, that had been conditioned, and SEC treatment was performed by centrifugation at 2000×G for 2 minutes. To the liquid passed from the SEC, 32 μL of a 1:1 mixed solution of acetonitrile and methanol (LC/MS grade, Fujifilm Wako Pure Chemical Corporation) was added, the mixture was centrifuged at 1800×G, 4° C., 5 min, and the supernatant was used as analysis sample ASMS (A), while a sample that had been prepared by the same operations at 1200 compounds/well and to which only the Tris-HCl buffer had been added without the Bcl-2 protein was incubated under the same conditions, no 96-well MacroSpin column treatment was performed, the same organic solvent was added, and the supernatant solution obtained by centrifugation was used as STD (B). Next, a sample that had been prepared by the same operations at 1200 compounds/well and to which only the Tris-HCl buffer had been added without the Bcl-2 protein was incubated under the same conditions, the same 96-well MacroSpin column treatment was performed, the same organic solvent was added, and the supernatant solution obtained by centrifugation was used as BK (C), and measured by reversed phase LC/MS.
Then, analysis of the 1200 compounds was carried out for samples A, B, and C with TraceFinder 5.1 (Thermo Fisher Scientific) and CHANCE Software (in-house), and the ASMS Ratio (%) was calculated according to the following calculation formula.
Calculation formula: ASMS Ratio(%)=(A−C)/B×100

[1] = AS-MS, mixture of 1200 compounds, Bcl-2
[2] = AS-MS on the mixture of 1200 library compounds

T1 sequence (P10415 whole entry): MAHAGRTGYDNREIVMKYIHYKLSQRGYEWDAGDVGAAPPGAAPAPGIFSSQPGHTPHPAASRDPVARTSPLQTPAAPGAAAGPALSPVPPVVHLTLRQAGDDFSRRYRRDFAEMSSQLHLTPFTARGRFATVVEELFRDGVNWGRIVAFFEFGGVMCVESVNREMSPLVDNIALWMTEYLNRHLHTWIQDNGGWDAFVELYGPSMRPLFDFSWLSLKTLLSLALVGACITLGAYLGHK

| Substance | ASMS ratio (%) n = 2 [1] [%] | ASMS ratio (%) n = 1 [1] [%] | ASMS ratio (%) n = 1 [2] [%] | ASMS ratio (%) n = 2 [2] [%] |
| --- | --- | --- | --- | --- |
| 4-[4-[[3-Ethoxy-5-(3-ethoxyphenyl)phenyl]methyl]piperazin-1-yl]-N-propylbenzamide [B1M009-01] | 0.0 |  |  |  |
| 4-[4-[[3-Ethoxy-5-(5-ethoxypyridin-3-yl)phenyl]methyl]piperazin-1-yl]-N-propylbenzamide [B1M011-01] | 7.5 | 18.6 |  |  |
| 4-[4-[[4-(3-Ethoxyphenyl)-2,6-dimethoxyphenyl]methyl]piperazin-1-yl]-N-propylbenzamide [B1M020-01] | 0.0 | 0.0 |  |  |
| 4-[4-[[4-(3-Ethoxyphenyl)-2-ethylphenyl]methyl]piperazin-1-yl]-N-propylbenzamide [B1M069-01] | −4.4 | −0.2 |  |  |
| 4-[4-[[4-(3-Ethoxyphenyl)-2-methoxyphenyl]methyl]piperazin-1-yl]-N-propylbenzamide [B1M093-01] |  |  | 0.0 | 0.0 |
| 4-[4-[[4-(3-Ethoxyphenyl)naphthalen-1-yl]methyl]piperazin-1-yl]-N-propylbenzamide [B1M044-01] | 1.1 | 1.0 |  |  |
| 4-[4-[[4-(3-Ethoxyphenyl)thiophen-2-yl]methyl]piperazin-1-yl]-N-propylbenzamide [B1M048-01] | 0.3 | 0.9 |  |  |
| 4-[4-[[4-(5-Ethoxypyridin-3-yl)-2,6-dimethoxyphenyl]methyl]piperazin-1-yl]-N-propylbenzamide [B1M022-01] | 6.7 | −13.6 |  |  |
| 4-[4-[[4-(5-Ethoxypyridin-3-yl)-2-methoxyphenyl]methyl]piperazin-1-yl]-N-propylbenzamide [B1M099-01] |  |  | −0.7 | −0.3 |
| 4-[4-[[4-(5-Ethoxypyridin-3-yl)-3-fluorophenyl]methyl]piperazin-1-yl]-N-propylbenzamide [B1M085-01] |  |  | 0.0 | 0.0 |
| 4-[4-[[4-(5-Ethoxypyridin-3-yl)-3-methylphenyl]methyl]piperazin-1-yl]-N-propylbenzamide [B1M064-01] | −4.3 | 5.4 |  |  |
| 4-[4-[[4-(5-Ethoxypyridin-3-yl)naphthalen-1-yl]methyl]piperazin-1-yl]-N-propylbenzamide [B1M046-01] | −1.2 | 0.7 |  |  |
| 4-[4-[[4-(5-Ethoxypyridin-3-yl)thiophen-2-yl]methyl]piperazin-1-yl]-N-propylbenzamide [B1M050-01] | −0.2 | −2.0 |  |  |
| 6-[4-[2-[2-(3-Ethoxyphenyl)ethynyl]benzoyl]piperazin-1-yl]-N-propylpyridazine-3-carboxamide [B1M095-01] |  |  | 0.0 | 0.0 |
| 6-[4-[2-[2-(5-Ethoxypyridin-3-yl)ethynyl]benzoyl]piperazin-1-yl]-N-propylpyridazine-3-carboxamide [B1M096-01] |  |  |  | 0.0 |
| 6-[4-[3-(3-Ethoxyphenyl)-5-(trifluoromethyl)benzoyl]piperazin-1-yl]-N-propylpyridazine-3-carboxamide [B1M089-01] |  |  | 3.9 | 0.2 |

| Substance | ASMS ratio (%) n = 2 [1] [%] | ASMS ratio (%) n = 1 [1] [%] | ASMS ratio (%) n = 1 [2] [%] | ASMS ratio (%) n = 2 [2] [%] |
| --- | --- | --- | --- | --- |
| 6-[4-[3-(5-Ethoxypyridin-3-yl)-5-(trifluoromethyl)benzoyl]piperazin-1-yl]-N-propylpyridazine-3-carboxamide [B1M007-01] | 0.3 | 0.3 |  |  |
| 6-[4-[3-[2-(3-Ethoxyphenyl)ethynyl]-5-(trifluoromethyl)benzoyl]piperazin-1-yl]-N-propylpyridazine-3-carboxamide [B1M013-01] | −1.1 | 2.9 |  |  |
| 6-[4-[3-[2-(3-Ethoxyphenyl)phenyl]propanoyl]piperazin-1-yl]-N-propylpyridazine-3-carboxamide [B1M067-01] | −87.4 | −1.6 |  |  |
| 6-[4-[3-[2-(5-Ethoxypyridin-3-yl)ethynyl]-5-(trifluoromethyl)benzoyl]piperazin-1-yl]-N-propylpyridazine-3-carboxamide [B1M018-01] | 0.0 | 0.0 |  |  |
| 6-[4-[3-[2-(5-Ethoxypyridin-3-yl)phenyl]propanoyl]piperazin-1-yl]-N-propylpyridazine-3-carboxamide [B1M077-01] | 3.1 | −0.7 |  |  |
| 6-[4-[3-[4-(3-Ethoxyphenyl)pyrazol-1-yl]-5-(trifluoromethyl)benzoyl]piperazin-1-yl]-N-propylpyridazine-3-carboxamide [B1M024-01] | 0.0 | 0.0 |  |  |
| 6-[4-[3-[4-(5-Ethoxypyridin-3-yl)pyrazol-1-yl]-5-(trifluoromethyl)benzoyl]piperazin-1-yl]-N-propylpyridazine-3-carboxamide [B1M030-01] | −5.9 | 0.0 |  |  |
| 6-[4-[3-tert-Butyl-5-(3-ethoxyphenyl)benzoyl]piperazin-1-yl]-N-propylpyridazine-3-carboxamide [B1M060-01] | 0.0 | 0.0 |  |  |
| 6-[4-[3-tert-Butyl-5-(5-ethoxypyridin-3-yl)benzoyl]piperazin-1-yl]-N-propylpyridazine-3-carboxamide [B1M061-01] | −13.1 | −3.3 |  |  |
| 6-[4-[4-(3-Ethoxyphenyl)-3-fluorobenzoyl]piperazin-1-yl]-N-propylpyridazine-3-carboxamide [B1M087-01] |  |  | 3.8 | 3.2 |
| 6-[4-[4-(3-Ethoxyphenyl)-3-methylbenzoyl]piperazin-1-yl]-N-propylpyridazine-3-carboxamide [B1M036-01] | −1.2 | 6.7 |  |  |
| 6-[4-[4-(3-Ethoxyphenyl)naphthalene-1-carbonyl]piperazin-1-yl]-N-propylpyridazine-3-carboxamide [B1M071-01] | 24.4 | 34.0 |  |  |
| 6-[4-[4-(3-Ethoxyphenyl)thiophene-2-carbonyl]piperazin-1-yl]-N-propylpyridazine-3-carboxamide [B1M081-01] |  |  | 0.0 | 0.0 |
| 6-[4-[4-(5-Ethoxypyridin-3-yl)-3-fluorobenzoyl]piperazin-1-yl]-N-propylpyridazine-3-carboxamide [B1M088-01] |  |  | 0.0 | 0.0 |
| 6-[4-[4-(5-Ethoxypyridin-3-yl)-3-methylbenzoyl]piperazin-1-yl]-N-propylpyridazine-3-carboxamide [B1M037-01] | 2.3 | −1.5 |  |  |
